Experiments:
[1] = test system: Mycobacterium terrae bacteria; assay: bacterial suspension test; format: cell-based; settings: for Germicidal Efficacy: summary Table 14
Procedure: The bacterial suspension test that was employed is described in Section VII.
The solutions were prepared by adding the appropriate amounts of the germicidal compounds to an aqueous solution. Unless otherwise mentioned all concentrations reported herein are expressed in (w/v) %. The pH of the solution was not adjusted. The tests were conducted at a temperature of about 20° C. (room temperature). The results are presented in terms of log reductions/mL. It is understood that these examples, as well as the other examples herein, are to be construed as merely illustrative, and not limiting.
In this test method, 9 mL of the germicide to be tested is placed in a tube, put into a water bath and allowed to come to the desired temperature. One mL of the test organism, including at least 7 logs/mL of Mycobacterium terrae bacteria, is added to the 9 mL of the germicide to be tested. […] It will be appreciated by those skilled in the art that other concentrations may be utilized by proper dilution and accounting.
At appropriate time intervals, 1 mL aliquots of the germicide-cell suspension were removed and added directly into 9 mL of a 1% glycine solution (neutralizer) and mixed thoroughly to neutralize the germicide in the transferred suspension. The glycine solution was prepared from solid glycine, which is available from VWR Scientific Products, among others. The above-identified 10 mL neutralized solution was then poured through a membrane filter having an average pore size of 0.45 micrometers. The filter was then rinsed twice with at least 150 mL of the 1% glycine solution per rinse. The filter was then placed on an agar plate and incubated for twenty-one days at 37° C. In the above procedure, if dilution was needed, then the 1 mL germicidal-cell suspension was diluted in 99 mL of a phosphate buffer before addition to the 9 mL of the 1% glycine solution. The phosphate buffer was DiLu-LoK™ Butterfields Phosphate Buffer, available from Hardy Diagnostics, of Santa Maria, Calif.
The surviving colonies are then counted. The data is plotted as S/So vs. time. So is the initial count of the bacteria in the above 10 mL solution which is at least 10^6 bacteria/mL, and S is the surviving bacteria from the above filter on the agar plate. The results of the experiments were presented in terms of log reductions. Log reduction is the difference between log(So) and log(S). As one example, if log(So)=6.2, and if there were 100 survivors, then the log(S)=2, and the log reduction was reported as 4.2.

[2] = solubility in water; format: physicochemical

Compound: O=Cc1ccc(F)cc1C=O [4-fluoro-phthalaldehyde]
- Log Reductions/mL ([1]; 0.25%, 20° C., exposure time 60 minutes): Total Kill

Compound: O=Cc1ccccc1C(O)S(=O)(=O)[O-].[Na+] (centres unmarked) [(2-formyl-phenyl)-hydroxy-methane sulfonic acid, sodium salt]
- Log Reductions/mL ([1]; 9.1%, 20° C., 5 min, listed as (2-formyl-phenyl)-hydroxy-methane sulfonate, sodium salt): confluent
- Log Reductions/mL ([1]; 9.1%, 20° C., 5 min, listed as H-SULF, sodium salt): Confluent

Compound: O=Cc1ccc(Cl)cc1C=O [4-chloro-phthalaldehyde]
- Log Reductions/mL ([1]; 2.7 w/v % in 20% isopropanol, 20° C., 5 min): Total Kill

Compound: O=Cc1cccc(C=O)c1 [IPA, isophthalaldehyde, reference compound]
- Log Reductions/mL ([1]; 0.3%, dissolved in 20% isopropanol, 20° C., 5 min (Table 11)): Confluent
- Log Reductions/mL ([1]; 0.3%, dissolved in 20% isopropanol, 20° C., 5 min (Table 11), listed as EPA): confluent
- Log Reductions/mL ([1]; 0.3%, dissolved in 20% isopropanol, 20° C., 5 min (Table 15)): Confluent
- Germicidal Efficacy [1]: Poor

Compound: O=Cc1ccc(Br)cc1C=O [4-bromo-phthalaldehyde]
- Log Reductions/mL ([1]; 0.1%, 20° C., exposure time 30 minutes): Total Kill

Compound: O=CC(c1ccccc1)C(O)S(=O)(=O)[O-].[Na+] (centres unmarked) [1-hydroxy-3-oxo-2-phenyl-propane-1-sulfonic acid, sodium salt]
- Log Reductions/mL ([1]; 0.6%, 20° C., 60 min, sodium salt): Total Kill
- Log Reductions/mL ([1]; 2.5%, 20° C., 10 min, sodium salt): total kill

Compound: 4-pyridinyl-propanedial
- Log Reductions/mL ([1]; Saturated (~2.3% w/v), 5 min, 20° C.): 4.0 log reductions/mL

Compound: O=CC(C=O)c1ccccc1 [phenyl-propanedial]
- solubility in water [2]: about 1%
- Log Reductions/mL ([1]; 0.4%, 20° C., 60 min (Table 5)): Total Kill
- Log Reductions/mL ([1]; 0.44%, 20° C., 60 min (Table 15)): Total Kill
- Log Reductions/mL ([1]; 0.66%, 20° C., 15 min (Table 15)): Total Kill
- Log Reductions/mL ([1]; 0.7%, 20° C., 15 min (Table 5)): Total Kill
- logs killed ([1]; 1% solution, 5 minutes, 20° C.): more than 4 logs
- Log Reductions/mL ([1]; ~1%, 20° C., 5 min (Table 15)): 4.5 log reductions/mL

Compound: O=Cc1ccccc1C=O [OPA, phthalaldehyde]
- solubility in water [2]: about 5 % by weight
- Germicidal Efficacy [1]: Good

Compound: O=Cc1ccc(C=O)cc1 [TPA, terephthalaldehyde, reference compound]
- Log Reductions/mL ([1]; 0.2%, dissolved in 20% isopropanol, 20° C., 5 min): Confluent
- Germicidal Efficacy [1]: Poor

From patent US7390837B2, “Germicidal compositions containing phenylmalonaldehyde-type compounds, or mixtures of phenylmalonaldehyde-type compounds and phthalaldehydes, and methods of using such compositions for disinfection or sterilization” (Ethicon, Inc., priority 2004, dated 2008)
